Results as given in patent publication US9885060B2, “Alkene production” (Evonik Degussa GmbH, priority 2015, dated 2018).

Legend:
Type in all cases: biochemical
OleT [1] = assay: Decarboxylation of FAs C22 to C4 employing the FDH-CamAB-OleT redox-cascade; settings: for Conversion / Selectivity α-Olefin / α-Olefin / Selectivity β-OH / Selectivity n-Alkanone / Selectivity α-OH: 10 mM substrate
Procedure: (§1) Enzymatic reactions (1 mL scale) were quenched by addition of 100 μL 5 N Extraction of substrate and products was performed with 500 μL EtOAc containing 0.1% 1-decanol as internal standard. The organic phase was dried over anhydrous Na2SO4. Derivatization of carboxylic acids (fatty acids and hydroxy acids) to the corresponding methyl esters was achieved by mixing the organic phase with MeOH (2.5:1.5 v/v) followed by supplementation of 5 to 15 μL of 2 M TMSCHN2 (trimethylsilyldiazomethane in diethyl ether). The mixture was incubated for 30 min, 25° C. and 750 rpm before injection into GC-FID or GC-MS, Extraction and derivatization of products and substrates from conversion of short chain FAs ([…]) was performed using the same protocol but all steps were performed on ice to prevent undesired loss of volatile products.
(§2) Products from FA substrates with chain lengths ranging from C22 to C10 were separated on a HP5 column (Programm) and detected by GC-FID or GC-MS. Extracted products from conversion of nonanoic acid (I-octene as product) were separated on a DB1702 column (Programm) and detected by GC-FID. Authentic standards of substrates and terminal olefins were treated as described above and were used as references for identification and preparation of calibration curves. Detection of volatile short chain terminal olefins (1-butene/1-propene [ongoing] to 1-heptene) was accomplished by manual injection from vial headspaces into GC-MS, in order to prevent loss of products, the vials containing the reaction mixtures were sealed with a PTFE septum. After conversion the closed vial was heated for 10 min at 80° C., together with a 10 ml syringe (TYPE). From the headspace 2 to 9 μl volumes were injected splitless into a GC-MS chromatograph and analytes were separated on a HP5 column (Programm). Calibration curves for 1-pentene, 1-hexene and 1-heptene were prepared in the same way at 4° C. and using 5% DMF as cosolvent.
The substrate scope of OleT was further investigated by varying the FA chain length from C3 to C22. […] For the first time, short EAs could be decarboxylated to the corresponding olefins, covering the whole spectrum from C11 down to C4. […] Due to the high volatility of short chain olefins, product work up was done at 4° C. […] (2.53 mM product from 5 mM lauric acid). Head-space analysis by GC-MS from reactions with short chain FAs (C8-C5) confirmed the formation of the respective α-olefins, allowing the first biotechnological access to 1-heptene, 1-hexene and 1-pentene and 1-butene with OleT.
Conversion of heptanoic acid was carried out as described in Example 4 using the OleTCamAB-FDH reaction cascade.
Calibration curves for 1-hexene were prepared accordingly ranging from 0.05 to 2 mM. Due to a strong overlap of […] with the peak areas of CO2 and EtOH (FIG. 1, peaks a, b and c) the ion extraction mode of the GC-MS to generate reliable calibration curves was used. Neither CO2 nor EtOH interfered with the product peak area. This can be seen comparing FIGS. 1 and 5 which allow reliable and linear quantification of 1-hexene (FIG. 6) using manual headspace GC-MS injection.
Manual headspace injection into GC-MS was successfully performed for all substrates with chain lengths of C11 to C6. Conversion of 10 mM heptanoic acid allowed reliable formation of up to 1.3 mM 1-hexene without further optimization of the reaction conditions.

OleT [2] = assay: Decarboxylation of stearic and palmitic acid by OleT using O2/CamAB or H2O2 as oxidant; settings: 1 μM OleT, 1 mM substrate
OleT [3] = assay: Decarboxylation of stearic acid by OleT with CamAB redox cascade and NAD(P)H regeneration system (GDH, PDH, FDH)
Procedure: as §1, §2
After 24 h reaction time, product concentrations of 1.16 mM (0.27 g L-1) 1-heptadecene and 1 mM (0.21 g L-1) 1-pentadecene were obtained but could not be further enhanced. […] Compared to a previously published whole cell reaction system, this FDH-driven system allows 6 times higher product titer and a 21 times higher volumetric productivity with 42.5 mg L-1 h-1 of α-olefin after 8 h reaction time vs: 98 mg L-1 in 48 h) (Table 2).

[4] = 200 μM NADPH + O2, CamAB, 60 min
[5] = 1 mM H2O2, 150 min, no CamAB, strong precipitation observed
[6] = 1 mM NADPH + O2, CamAB, 150 min
[7] = FDH-based regeneration, 5 mM stearic acid
[8] = Formate [8 h], FDH-CamAB, purified OleT 3 μM, 5 mM stearic acid
[9] = Formate, FDH-(Fdr/Fdx) without CamAB, cell free lysate OleT 3 μM, 5 mM stearic acid, 24 h
[10] = Formate, FDH-CamAB, purified OleT 1.5 μM, 5 mM stearic acid, 24 h
[11] = Formate, FDH-CamAB-Fdr/Fdx, cell free lysate OleT 3 μM, 5 mM stearic acid, 24 h
[12] = Glucose, GDH-CamAB, purified OleT 1.5 μM, 5 mM stearic acid, 24 h
[13] = PDH-based regeneration, 5 mM stearic acid
[14] = Phosphite, PDH-CamAB, purified OleT 1.5 μM, 5 mM stearic acid, 24 h

For `CCCCCCCCCC(=O)O` [C10, capric acid/decanoic acid], the Conversion (OleT [1]; 4 °C, 72 h) was 0.7%, the “Selectivity α-Olefin” value (OleT [1]; 4 °C, 72 h) was over 99 % GC-area and the α-Olefin (OleT [1]; 4 °C, 72 h) was 71 µM. The Conversion (OleT [1]; 25 °C, 24 h) was 0.4%, the “Selectivity α-Olefin” value (OleT [1]; 25 °C, 24 h) was over 99 % GC-area and the “Selectivity β-OH” value (OleT [1]; 25 °C, 24 h) was “Traces”. It also gave a α-Olefin (OleT [1]; 25 °C, 24 h) of 44 µM.
For `CCCCCCCCCCCC(=O)O` [C12, lauric acid], the product concentration (OleT [1]; 4° C., 5 mM lauric acid) was 2.53 mM, the Conversion (OleT [1]; 4 °C, 72 h) was 33% and the “Selectivity α-Olefin” value (OleT [1]; 4 °C, 72 h) was 73 % GC-area. For the same compound, the “Selectivity β-OH” value (OleT [1]; 4 °C, 72 h) was 30 % GC-area, the α-Olefin (OleT [1]; 4 °C, 72 h) was 3260 µM and the Conversion (OleT [1]; 25 °C, 24 h) was 3%. It also gave a α-Olefin (OleT [1]; 25 °C, 24 h) of 273 µM.
For `CCCCCCCCCCCCCCCC(=O)O` [Palmitic Acid, palmitic acid], the Conversion (OleT [1]; 4 °C, 72 h) was 21%, the “Selectivity n-Alkanone” value (OleT [1]; 4 °C, 72 h) was 6 % GC-area and the “Selectivity α-OH” value (OleT [1]; 4 °C, 72 h) was under 1 % GC-area. The “Selectivity α-Olefin” value (OleT [1]; 4 °C, 72 h) was 80 % GC-area, the “Selectivity β-OH” value (OleT [1]; 4 °C, 72 h) was 14 % GC-area and the α-Olefin (OleT [1]; 4 °C, 72 h) was 2059 µM. The Conversion (OleT [1]; 25 °C, 24 h) was 11%, the “Selectivity n-Alkanone” value (OleT [1]; 25 °C, 24 h) was 8 % GC-area and the “Selectivity α-OH” value (OleT [1]; 25 °C, 24 h) was 3 % GC-area. The “Selectivity α-Olefin” value (OleT [1]; 25 °C, 24 h) was 72 % GC-area, the “Selectivity β-OH” value (OleT [1]; 25 °C, 24 h) was 23 % GC-area and the α-Olefin (OleT [1]; 25 °C, 24 h) was 1111 µM. The Coupling (OleT [2]; 200 μM H2O2, 60 min, no CamAB) was 33%, the TOF (OleT [2]; 200 μM H2O2, 60 min, no CamAB) was 65 h⁻¹ and the TON (OleT [2]; 200 μM H2O2, 60 min, no CamAB) was 65. For the same compound, the α-Olefin (OleT [2]; 200 μM H2O2, 60 min, no CamAB) was 65 µM, the Coupling (OleT [2]; 200 μM NADH + O2, CamAB, 6 min) was 3% and the TOF (OleT [2]; 200 μM NADH + O2, CamAB, 6 min) was 60 h⁻¹. It also gave a TON (OleT [2]; 200 μM NADH + O2, CamAB, 6 min) of 60, a α-Olefin (OleT [2]; 200 μM NADH + O2, CamAB, 6 min) of 6 µM and a Coupling (OleT [2]; [4]) of 10%. It also gave a TOF (OleT [2]; [4]) of 21 h⁻¹, a TON (OleT [2]; [4]) of 21 and a α-Olefin (OleT [2]; [4]) of 21 µM. It also gave a Coupling (OleT [2]; [5]) of 7%, a TOF (OleT [2]; [5]) of 29 h⁻¹ and a TON (OleT [2]; [5]) of 29. The α-Olefin (OleT [2]; [5]) was 73 µM, the Coupling (OleT [2]; 1 mM NADH + O2, CamAB, 60 min) was 1% and the TOF (OleT [2]; 1 mM NADH + O2, CamAB, 60 min) was 9 h⁻¹. For the same compound, the TON (OleT [2]; 1 mM NADH + O2, CamAB, 60 min) was 9, the α-Olefin (OleT [2]; 1 mM NADH + O2, CamAB, 60 min) was 9 µM and the Coupling (OleT [2]; [6]) was 3%. The TOF (OleT [2]; [6]) was 13 h⁻¹, the TON (OleT [2]; [6]) was 33 and the α-Olefin (OleT [2]; [6]) was 33 µM.
With `CCCCCCCCCCCCCCCCCC(=O)O` [Stearic Acid, stearic acid] the Conversion (OleT [1]; 4 °C, 72 h) was 25%, the “Selectivity n-Alkanone” value (OleT [1]; 4 °C, 72 h) was 5 % GC-area and the “Selectivity α-OH” value (OleT [1]; 4 °C, 72 h) was under 1 % GC-area. For the same compound, the “Selectivity α-Olefin” value (OleT [1]; 4 °C, 72 h) was 93 % GC-area, the “Selectivity β-OH” value (OleT [1]; 4 °C, 72 h) was 5 % GC-area and the α-Olefin (OleT [1]; 4 °C, 72 h) was 2451 µM. For the same compound, the Conversion (OleT [1]; 25 °C, 24 h) was 39%, the “Selectivity n-Alkanone” value (OleT [1]; 25 °C, 24 h) was 6 % GC-area and the “Selectivity α-OH” value (OleT [1]; 25 °C, 24 h) was 2 % GC-area. The “Selectivity α-Olefin” value (OleT [1]; 25 °C, 24 h) was 86 % GC-area, the “Selectivity β-OH” value (OleT [1]; 25 °C, 24 h) was 8 % GC-area and the α-Olefin (OleT [1]; 25 °C, 24 h) was 3886 µM. It also gave a maximum product concentration (OleT [1]; RT, 5 mM stearic acid) of 2.45 mM, a Conversion (OleT [3]; [7]) of 62% and a TIN (OleT [3]; [7]) of 2096. For the same compound, the “volumetric productivity of α-olefin” value (OleT [3]; FDH-driven system, after 8 h reaction time) was 42.5 mg/L/h, the Product (OleT [3]; [8]) was 0.34 g/L and the TTN (OleT [3]; [8]) was 473. It also gave a α-Olefin (OleT [3]; [8]) of 1419 µM, a Product (OleT [3]; [9]) of 0.1 g/L and a TTN (OleT [3]; [9]) of 151. It also gave a α-Olefin (OleT [3]; [9]) of 452 ± 52 µM, a Product (OleT [3]; [10]) of 0.75 g/L and a TTN (OleT [3]; [10]) of 2096. The α-Olefin (OleT [3]; [10]) was 3144 ± 121 µM, the Product (OleT [3]; [11]) was 0.37 g/L and the TTN (OleT [3]; [11]) was 522. The α-Olefin (OleT [3]; [11]) was 1565 ± 20 µM, the Conversion (OleT [3]; GDH-based system, 1 mM stearic acid) was 36% and the TIN (OleT [3]; GDH-based system, 10 mM stearic acid) was “up to 389”. For the same compound, the Product (OleT [3]; [12]) was 0.24 g/L, the TTN (OleT [3]; [12]) was 680 and the α-Olefin (OleT [3]; [12]) was 1020 ± 63 µM. For the same compound, the Conversion (OleT [3]; [13]) was 52%, the TIN (OleT [3]; [13]) was 1739 and the Product (OleT [3]; [14]) was 0.62 g/L. It also gave a TTN (OleT [3]; [14]) of 1739, a α-Olefin (OleT [3]; [14]) of 2609 ± 256 µM and a Coupling (OleT [2]; 200 μM H2O2, 60 min, no CamAB) of 85%. For the same compound, the TOF (OleT [2]; 200 μM H2O2, 60 min, no CamAB) was 170 h⁻¹, the TON (OleT [2]; 200 μM H2O2, 60 min, no CamAB) was 170 and the α-Olefin (OleT [2]; 200 μM H2O2, 60 min, no CamAB) was 170 ± 7 µM. The Coupling (OleT [2]; 200 μM NADH + O2, CamAB, 6 min) was 7%, the TOF (OleT [2]; 200 μM NADH + O2, CamAB, 6 min) was 150 h⁻¹ and the TON (OleT [2]; 200 μM NADH + O2, CamAB, 6 min) was 15. The α-Olefin (OleT [2]; 200 μM NADH + O2, CamAB, 6 min) was 15 ± 1 µM, the Coupling (OleT [2]; [4]) was 25% and the TOF (OleT [2]; [4]) was 53 h⁻¹. For the same compound, the TON (OleT [2]; [4]) was 53, the α-Olefin (OleT [2]; [4]) was 53 ± 5 µM and the Coupling (OleT [2]; [5]) was 5%. It also gave a TOF (OleT [2]; [5]) of 21 h⁻¹, a TON (OleT [2]; [5]) of 53 and a α-Olefin (OleT [2]; [5]) of 53 ± 15 µM. It also gave a Coupling (OleT [2]; 1 mM NADH + O2, CamAB, 60 min) of 2%, a TOF (OleT [2]; 1 mM NADH + O2, CamAB, 60 min) of 20 h⁻¹ and a TON (OleT [2]; 1 mM NADH + O2, CamAB, 60 min) of 20. It also gave a α-Olefin (OleT [2]; 1 mM NADH + O2, CamAB, 60 min) of 20 ± 2 µM, a Coupling (OleT [2]; [6]) of 11% and a TOF (OleT [2]; [6]) of 47 h⁻¹. The TON (OleT [2]; [6]) was 118 and the α-Olefin (OleT [2]; [6]) was 118 ± 23 µM.
